Publication PMC8617681 (Pharmaceuticals, 2021)
Like-named read-outs stand apart in the source and are kept apart here.

Tests used:
[1] = 4 h main pharmacokinetic experiment in wild-type, Abcb1a/1b-/-, Abcg2-/- and Abcb1a/1b;Abcg2-/- mice; format: in vivo; conditions: 10 mg/kg oral, 4 h main experiment; for Cmax / Tmax / concentration at 4 h / AUC(0-t): mouse; for Cmax / Tmax / AUC(0-t): plasma; for concentration at 4 h / AUC(0-t): male, po, 10 mg/kg; for AUC(0-t): read-out: AUC0–4h
Experimental: Mice were housed and handled according to institutional guidelines complying with Dutch and EU legislation. All experimental animal protocols were evaluated and approved by the institutional animal care and use committee. Wild-type, Abcb1a/1b^-/-, Abcg2^-/-, Abcb1a/1b; Abcg2^-/-, Slco1a/1b^-/- male mice, and Cyp3a^-/- and Cyp3aXAV female mice, all of a >99% FVB genetic background, were used between 9 and 16 weeks of age. […] All experimental animal protocols (WP9450, 9669, 9760), including power calculations, designed under the nationally approved DEC/CCD project AVD301002016595, were evaluated and approved by the institutional animal care and use committee of The Netherlands Cancer Institute. […]
(§1) For the 4 h transporter experiments, tail-vein blood samples were collected at 0.125, 0.25, 0.5, 1, and 2 h time points after oral administration, respectively. For the CYP3A 8 h experiments, tail-vein blood sampling was performed at 0.25, 0.5, 1, 2, and 4 h, respectively. While for elacridar inhibition experiments, tail-vein blood samples were collected at 0.125, 0.25, 0.5, and 1 h time points after oral administration, respectively. Blood sample collection was performed using microvettes containing dipotassium EDTA. At the last time point in each experiment (2, 4 or 8 h), mice were anesthetized with 5% isoflurane and blood was collected by cardiac puncture. Blood samples were collected in Eppendorf tubes containing heparin as an anticoagulant. The mice were then sacrificed by cervical dislocation and brain, liver, kidney, lung, small intestine and testis were rapidly removed. Plasma was isolated from the blood by centrifugation at 9000× g for 6 min at 4 °C, and the plasma fraction was collected and stored at −30 °C until analysis. Organs were homogenized with 4% (w/v) bovine serum albumin and stored at −30 °C until analysis.
(§2) Pharmacokinetic parameters were calculated by noncompartmental methods using the PK solver software. The area under the plasma concentration–time curve (AUC) was calculated using the trapezoidal rule, without extrapolating to infinity. The peak plasma concentration (Cmax) and the time of maximum plasma concentration (Tmax) were estimated from the original (individual mouse) data. One-way analysis of variance (ANOVA) was used when multiple groups were compared and the Tukey post hoc correction was used to accommodate multiple testing. The two-sided unpaired Student’s t-test was used when treatments or differences between two specific groups were compared using the software GraphPad Prism 8 (GraphPad Software Inc., La Jolla, CA, USA). All the data were log-transformed before statistical tests were applied. Differences were considered statistically significant when p < 0.05. All data are presented as geometric mean ± SD.

[2] = 2 h pharmacokinetic study with or without elacridar in wild-type and Abcb1a/1b;Abcg2-/- mice; format: in vivo; conditions: for concentration at 2 h / Cmax / Tmax / AUC(0-t): mouse, 10 mg/kg oral, 2 h; for Cmax / Tmax / AUC(0-t): male, plasma, po, 10 mg/kg; for AUC(0-t): read-out: AUC0–2h
Experimental: Mice were housed and handled according to institutional guidelines complying with Dutch and EU legislation. All experimental animal protocols were evaluated and approved by the institutional animal care and use committee. Wild-type, Abcb1a/1b^-/-, Abcg2^-/-, Abcb1a/1b; Abcg2^-/-, Slco1a/1b^-/- male mice, and Cyp3a^-/- and Cyp3aXAV female mice, all of a >99% FVB genetic background, were used between 9 and 16 weeks of age. […] All experimental animal protocols (WP9450, 9669, 9760), including power calculations, designed under the nationally approved DEC/CCD project AVD301002016595, were evaluated and approved by the institutional animal care and use committee of The Netherlands Cancer Institute.
Elacridar hydrochloride was dissolved in DMSO (53 mg/mL) in order to obtain 50 mg elacridar base per mL DMSO. The stock solution was further diluted with a mixture of polysorbate 20, 100% ethanol and 5% glucose water to yield a concentration of 5 mg/mL elacridar [DMSO: polysorbate 20: 100% ethanol: 5% glucose water = 10:15:15:60, (v/v/v/v)]. All dosing solutions were prepared freshly on the day of the experiment.
as §1, §2

[3] = patients; cited from earlier work
[4] = tested on: RET fusion-positive cancers; conditions: clinical phase 1 study; cited from earlier work
[5] = tested on: CNS metastasis; conditions: 11 patients with measurable CNS lesions, cited from earlier work
[6] = FVB (Abcb1a/1b-/-), male Abcb1a/1b-/- mice
[7] = FVB (Abcb1a/1b;Abcg2-/-), male Abcb1a/1b;Abcg2-/- mice
[8] = FVB (Abcg2-/-), male Abcg2-/- mice
[9] = FVB (wild-type), male wild-type mice
[10] = Abcb1a/1b;Abcg2-/- (>99% FVB genetic background), male Abcb1a/1b;Abcg2-/- mice, elacridar 50 mg/kg oral 2 h prior
[11] = Abcb1a/1b;Abcg2-/- (>99% FVB genetic background), male Abcb1a/1b;Abcg2-/- mice, vehicle
[12] = wild-type (>99% FVB genetic background), male wild-type mice, elacridar 50 mg/kg oral 2 h prior
[13] = wild-type (>99% FVB genetic background), male wild-type mice, vehicle

SMILES: COc1ccc(CN2C3CC2CN(c2ccc(-c4cc(OCC(C)(C)O)cn5ncc(C#N)c45)cn2)C3)cn1 [selpercatinib]
- Cmax [1, 6]: 10300 ng/mL
- Tmax [1, 6]: 1.8 ± 1.3 h
- Cmax [1, 7]: 11000 ng/mL
- Tmax [1, 7]: 1.5 ± 1.3 h
- Cmax [1, 8]: 11400 ng/mL
- Tmax [1, 8]: 1.4 ± 0.74 h
- Cmax [1, 9]: 6910 ± 761 ng/mL
- Tmax [1, 9]: 1.6 ± 1.4 h
- SIC percentage of dose ([1]; male Abcb1a/1b-/- mice): 1.1 ± 0.3%
- SIC percentage of dose ([1]; male Abcb1a/1b;Abcg2-/- mice): 0.69 ± 0.52 %
- SIC percentage of dose ([1]; male Abcg2-/- mice): 1.6 ± 0.7 %
- SIC percentage of dose ([1]; male wild-type mice): 2.3 ± 0.9%
- concentration at 4 h ([1]; FVB (Abcb1a/1b-/-), brain, male Abcb1a/1b-/- mice, read-out: Cbrain): 2000 ± 233 ng/g
- concentration at 4 h ([1]; FVB (Abcb1a/1b;Abcg2-/-), brain, male Abcb1a/1b;Abcg2-/- mice, read-out: Cbrain): 4260 ± 853 ng/g
- AUC(0-t) [1, 7]: 39000 ng·h/mL
- concentration at 4 h ([1]; FVB (Abcg2-/-), brain, male Abcg2-/- mice, read-out: Cbrain): 418 ± 102 ng/g
- concentration at 4 h ([1]; FVB (wild-type), brain, male wild-type mice, read-out: Cbrain): 420 ± 66 ng/g
- concentration at 4 h ([1]; FVB, liver, male Abcb1a/1b-/- mice, read-out: CLiver): 34000 ng/g
- concentration at 4 h ([1]; FVB, liver, male Abcb1a/1b;Abcg2-/- mice, read-out: CLiver): 23200 ng/g
- concentration at 4 h ([1]; FVB, liver, male Abcg2-/- mice, read-out: CLiver): 19300 ng/g
- concentration at 4 h ([1]; FVB, liver, male wild-type mice, read-out: CLiver): 25700 ng/g
- AUC(0-t) ([1]; FVB, male Abcb1a/1b-/- mice): 37000 ng·h/mL
- AUC(0-t) ([1]; FVB, male Abcg2-/- mice): 39100 ng·h/mL
- AUC(0-t) ([1]; FVB, male wild-type mice): 23700 ng·h/mL
- concentration at 4 h ([1]; FVB, small intestine contents, male Abcb1a/1b-/- mice, read-out: CSIC (small intestine contents concentration)): 69400 ng/g
- concentration at 4 h ([1]; FVB, small intestine contents, male Abcb1a/1b;Abcg2-/- mice, read-out: CSIC (small intestine contents concentration)): 27400 ng/g
- concentration at 4 h ([1]; FVB, small intestine contents, male Abcg2-/- mice, read-out: CSIC (small intestine contents concentration)): 91700 ng/g
- concentration at 4 h ([1]; FVB, small intestine contents, male wild-type mice, read-out: CSIC (small intestine contents concentration)): 98100 ng/g
- concentration at 4 h ([1]; FVB, small intestine, male Abcb1a/1b-/- mice, read-out: CSI (small intestine tissue concentration)): 17000 ng/g
- concentration at 4 h ([1]; FVB, small intestine, male Abcb1a/1b;Abcg2-/- mice, read-out: CSI (small intestine tissue concentration)): 11600 ng/g
- concentration at 4 h ([1]; FVB, small intestine, male Abcg2-/- mice, read-out: CSI (small intestine tissue concentration)): 13000 ng/g
- concentration at 4 h ([1]; FVB, small intestine, male wild-type mice, read-out: CSI (small intestine tissue concentration)): 21600 ng/g
- concentration at 4 h ([1]; FVB, testis, male Abcb1a/1b-/- mice, read-out: Ctestis): 3480 ± 634 ng/g
- concentration at 4 h ([1]; FVB, testis, male Abcb1a/1b;Abcg2-/- mice, read-out: Ctestis): 8330 ± 935 ng/g
- concentration at 4 h ([1]; FVB, testis, male Abcg2-/- mice, read-out: Ctestis): 1050 ± 192 ng/g
- concentration at 4 h ([1]; FVB, testis, male wild-type mice, read-out: Ctestis): 811 ± 148 ng/g
- concentration at 2 h ([2]; Abcb1a/1b;Abcg2-/- (>99% FVB genetic background), brain, male Abcb1a/1b;Abcg2-/- mice, elacridar 50 mg/kg oral 2 h prior, read-out: Cbrain): 4710 ± 484 ng/g
- concentration at 2 h ([2]; Abcb1a/1b;Abcg2-/- (>99% FVB genetic background), brain, male Abcb1a/1b;Abcg2-/- mice, vehicle, read-out: Cbrain): 4730 ± 638 ng/g
- concentration at 2 h ([2]; FVB (Abcb1a/1b;Abcg2-/-), liver, with elacridar 50 mg/kg oral, 2 h before selpercatinib, male Abcb1a/1b;Abcg2-/- mice, elacridar 50 mg/kg oral 2 h prior, read-out: CLiver): 23600 ng/g
- concentration at 2 h ([2]; FVB (Abcb1a/1b;Abcg2-/-), liver, male Abcb1a/1b;Abcg2-/- mice, vehicle, read-out: CLiver): 21400 ng/g
- concentration at 2 h ([2]; FVB (wild-type), liver, with elacridar 50 mg/kg oral, 2 h before selpercatinib, male wild-type mice, elacridar 50 mg/kg oral 2 h prior, read-out: CLiver): 20000 ng/g
- concentration at 2 h ([2]; FVB (wild-type), liver, male wild-type mice, vehicle, read-out: CLiver): 18100 ng/g
- concentration at 2 h ([2]; FVB, small intestine tissue together with contents, male Abcb1a/1b;Abcg2-/- mice, elacridar 50 mg/kg oral 2 h prior, read-out: CSI + SIC (small intestine tissue together with contents concentration)): 21200 ng/g
- concentration at 2 h ([2]; FVB, small intestine tissue together with contents, male Abcb1a/1b;Abcg2-/- mice, vehicle, read-out: CSI + SIC (small intestine tissue together with contents concentration)): 18800 ng/g
- concentration at 2 h ([2]; FVB, small intestine tissue together with contents, male wild-type mice, elacridar 50 mg/kg oral 2 h prior, read-out: CSI + SIC (small intestine tissue together with contents concentration)): 26600 ng/g
- concentration at 2 h ([2]; FVB, small intestine tissue together with contents, male wild-type mice, vehicle, read-out: CSI + SIC (small intestine tissue together with contents concentration)): 37600 ng/g
- concentration at 2 h ([2]; FVB, testis, male Abcb1a/1b;Abcg2-/- mice, elacridar 50 mg/kg oral 2 h prior, read-out: Ctestis): 9200 ± 856 ng/g
- concentration at 2 h ([2]; FVB, testis, male Abcb1a/1b;Abcg2-/- mice, vehicle, read-out: Ctestis): 7020 ± 664 ng/g
- concentration at 2 h ([2]; FVB, testis, male wild-type mice, elacridar 50 mg/kg oral 2 h prior, read-out: Ctestis): 5710 ± 1740 ng/g
- concentration at 2 h ([2]; FVB, testis, male wild-type mice, vehicle, read-out: Ctestis): 788 ± 159 ng/g
- Cmax [2, 10]: 9620 ± 776 ng/mL
- Tmax [2, 10]: 0.79 ± 0.33 h
- AUC(0-t) [2, 10]: 17300 ng·h/mL
- Cmax [2, 11]: 8860 ± 792 ng/mL
- Tmax [2, 11]: 1 h
- AUC(0-t) [2, 11]: 15100 ng·h/mL
- AUC(0-t) ([2]; FVB, wild-type, male wild-type mice, vehicle): 14100 ng·h/mL
- Cmax [2, 12]: 7470 ± 1850 ng/mL
- Tmax [2, 12]: 0.5 ± 0.27 h
- AUC(0-t) [2, 12]: 12900 ng·h/mL
- Cmax [2, 13]: 8740 ± 1560 ng/mL
- Tmax [2, 13]: 0.75 ± 0.27 h
- concentration at 2 h ([2]; wild-type (>99% FVB genetic background), brain, male wild-type mice, elacridar 50 mg/kg oral 2 h prior, read-out: Cbrain): 2760 ± 851 ng/g
- concentration at 2 h ([2]; wild-type (>99% FVB genetic background), brain, male wild-type mice, vehicle, read-out: Cbrain): 210 ± 40 ng/g
- abnormal external behavior ([2]; wild-type mice, oral co-administration of elacridar): without any abnormal external behavior
- AUC0–24h [3]: 51,600 ng/mL*h
- average Cmax [3]: 2980 ng/mL
- overall response rate [4]: 77%
- percentage with an objective intracranial response ([5]; independent review): 91%
- complete responses (intracranial) [5]: 27%
- partial responses (intracranial) [5]: 64%
